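Where inhibition never reached the appropriate level, the endpoint shown equals the highest concentration tested. Otherwise, values were interpolated linearly from a five-concentration, 48-hour dose response in 96-well plates. GI50: concentration for 50% inhibition of growth.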 Calls of active or inactive are those of the source. Rule as the data show it: active = GI50 up to about 1.1 µM and inactive = higher.
Assays:
Experiment in all cases: growth of human tumour cells (NCI), 48 h
786-0 = tested on: 786-0
A498 = tested on: A498
A549 = tested on: A549
ACHN = tested on: ACHN
BT-549 = tested on: BT-549
CCRF-CEM = tested on: CCRF-CEM
COLO 205 = tested on: COLO 205
DU-145 = tested on: DU-145
EKVX = tested on: EKVX
HCT-116 = tested on: HCT-116
HCT-15 = tested on: HCT-15
HOP-62 = tested on: HOP-62
HOP-92 = tested on: HOP-92
HT-29 = tested on: HT-29
Hs-578T = tested on: Hs-578T
IGROV-1 = tested on: IGROV-1
K562 = tested on: K562
KM12 = tested on: KM12
LOX IMVI = tested on: LOX IMVI
M14 = tested on: M14
MCF7 = tested on: MCF7
MDA-MB-231 = tested on: MDA-MB-231
MDA-MB-435 = tested on: MDA-MB-435
MDA-N = tested on: MDA-N
MOLT-4 = tested on: MOLT-4
Malme-3M = tested on: Malme-3M
NCI-H226 = tested on: NCI-H226
NCI-H23 = tested on: NCI-H23
NCI-H460 = tested on: NCI-H460
NCI/ADR-RES = tested on: NCI/ADR-RES
OVCAR-3 = tested on: OVCAR-3
OVCAR-4 = tested on: OVCAR-4
OVCAR-5 = tested on: OVCAR-5
OVCAR-8 = tested on: OVCAR-8
PC-3 = tested on: PC-3
RPMI-8226 = tested on: RPMI-8226
RXF 393 = tested on: RXF 393
SF-268 = tested on: SF-268
SF-295 = tested on: SF-295
SF-539 = tested on: SF-539
SK-MEL-28 = tested on: SK-MEL-28
SK-MEL-2 = tested on: SK-MEL-2
SK-MEL-5 = tested on: SK-MEL-5
SK-OV-3 = tested on: SK-OV-3
SN12C = tested on: SN12C
SNB-19 = tested on: SNB-19
SNB-75 = tested on: SNB-75
SR = tested on: SR
SW-620 = tested on: SW-620
T47D = tested on: T47D
TK-10 = tested on: TK-10
U-251 = tested on: U-251
UACC-257 = tested on: UACC-257
UACC-62 = tested on: UACC-62
UO-31 = tested on: UO-31

With `O=C(N/S(=N/S(=O)(=O)c1ccc(Br)cc1)C(Cl)(Cl)Cl)c1ccccc1` (stereo not given) the GI50 (786-0) was > 100 µM (inactive), the GI50 (A498) was > 100 µM (inactive) and the GI50 (A549) was > 100 µM (inactive). For the same compound, the GI50 (ACHN) was > 100 µM (inactive), the GI50 (BT-549) was > 100 µM (inactive) and the GI50 (CCRF-CEM) was > 100 µM (inactive). The GI50 (COLO 205) was > 100 µM (inactive), the GI50 (DU-145) was > 100 µM (inactive) and the GI50 (EKVX) was > 100 µM (inactive). The GI50 (HCT-116) was > 100 µM (inactive), the GI50 (HCT-15) was over 100 µM and the GI50 (HOP-62) was > 100 µM (inactive). The GI50 (HOP-92) was 26.2 µM (inactive), the GI50 (HT-29) was > 100 µM (inactive) and the GI50 (Hs-578T) was > 100 µM (inactive). For the same compound, the GI50 (IGROV-1) was > 100 µM (inactive), the GI50 (K562) was > 100 µM (inactive) and the GI50 (KM12) was > 100 µM (inactive). The GI50 (LOX IMVI) was > 100 µM (inactive), the GI50 (M14) was > 100 µM (inactive) and the GI50 (MCF7) was > 100 µM (inactive). For the same compound, the GI50 (MDA-MB-231) was > 100 µM (inactive), the GI50 (MDA-MB-435) was > 100 µM (inactive) and the GI50 (MDA-N) was > 100 µM (inactive). The GI50 (MOLT-4) was > 100 µM (inactive), the GI50 (Malme-3M) was > 100 µM (inactive) and the GI50 (NCI-H226) was > 100 µM (inactive). The GI50 (NCI-H23) was > 100 µM (inactive), the GI50 (NCI-H460) was > 100 µM (inactive) and the GI50 (NCI/ADR-RES) was > 100 µM (inactive). The GI50 (OVCAR-3) was > 100 µM (inactive), the GI50 (OVCAR-4) was > 100 µM (inactive) and the GI50 (OVCAR-5) was > 100 µM (inactive). The GI50 (OVCAR-8) was > 100 µM (inactive), the GI50 (PC-3) was > 100 µM (inactive) and the GI50 (RPMI-8226) was > 100 µM (inactive). For the same compound, the GI50 (RXF 393) was > 100 µM (inactive), the GI50 (SF-268) was > 100 µM (inactive) and the GI50 (SF-295) was > 100 µM (inactive). The GI50 (SF-539) was > 100 µM (inactive), the GI50 (SK-MEL-28) was > 100 µM (inactive) and the GI50 (SK-MEL-2) was > 100 µM (inactive). The GI50 (SK-MEL-5) was > 100 µM (inactive), the GI50 (SK-OV-3) was > 100 µM (inactive) and the GI50 (SN12C) was > 100 µM (inactive). For the same compound, the GI50 (SNB-19) was > 100 µM (inactive), the GI50 (SNB-75) was 23.3 µM (inactive) and the GI50 (SR) was 70 µM (inactive). For the same compound, the GI50 (SW-620) was > 100 µM (inactive), the GI50 (T47D) was > 100 µM (inactive) and the GI50 (TK-10) was > 100 µM (inactive). The GI50 (U-251) was > 100 µM (inactive), the GI50 (UACC-257) was > 100 µM (inactive) and the GI50 (UACC-62) was > 100 µM (inactive). For the same compound, the GI50 (UO-31) was > 100 µM (inactive).

From ChEMBL document CHEMBL1201862, “PubChem BioAssay data set” (2004)
